Source: patent US8691725B2, “Synergistic combination of a glyphosate compound and TBZ” (Dow Global Technologies LLC, priority 2010, dated 2014)

Assays:
[1] = system: Aa-Tv; experiment: Fungal efficacy on dry paint film (Modified ASTM 5590), pool Aa-Tv; assay type: cell-based, Alternaria alternata + Trichoderma viride
Method: (§1) Each sample was tested in duplicate.
(§2) The SI is calculated based on F. C. Kull et.
(§3) SI value of <1 in the formula indicates a synergism of the blended biocides exists.
(§4) NE=no end point at the concentration tested that will meet the percent inhibition criteria set in each SI calculation.

[2] = system: Ap-Ch; experiment: Fungal efficacy on dry paint film (Modified ASTM 5590), pool Ap-Ch; assay type: cell-based, Aureobasidium pullulans + Cladosporium herbarum
Method: as §1, §2, §3, §4

[3] = system: Gloeocapsa sp. and Oscillatoria sp.; experiment: Algal efficacy on dry paint film (Modified ASTM 5589), pool Gs + Os (Os-Gl); assay type: cell-based
Method: as §1
(§5) In this synergy study, three pool of mixed algae were prepared as the test inoculum, Gloeocapsa sp. and Oscillatoria sp. a mix of cyanobacteria grown on BG-11 media; Chlorella sp., Chlorella kessleri, and Nostoc commune are unicellular chlorphytes that were mixed and grown on Bold media; Trentepohlia aurea, Tretepohlia odorata, and Calotrix parientina are filamentous algae that were mixed and grown on Bold media.
(§6) The plates were incubated at room temp (25° C.-26° C.) with cyclic exposure to light (OTT-Lite model # OTL4012P, 40 Watt, 26 KLumen) and dark phases, for a period of four weeks. The total area covered was evaluated at the end of each week according to percent area covered in 5% increments.
as §2, §3, §4

[4] = system: Chlorella sp., Chlorella kessleri, and Nostoc commune; experiment: Algal efficacy on dry paint film (Modified ASTM 5589), pool Cs + Ck + Nc (Ch-No); assay type: cell-based
Method: as §1, §5, §6, §2, §3, §4

[5] = system: Trentepohlia aurea, Tretepohlia odorata, and Calotrix parientina; experiment: Algal efficacy on dry paint film (Modified ASTM 5589), pool Cp + To + Ta (Cal-Tre); assay type: cell-based
Method: as §1, §5, §6, §2, §3, §4

[6] = system: Aspergillus niger mixed with Penicillium funiculosum; experiment: Fungal efficacy on dry paint film (Modified ASTM 5590), pool An + Pf; assay type: cell-based; details: for % Inhibition: at the total conc for the same composition
Method: as §1, §2, §3, §4

[7] = cited from earlier work
[8] = at the total conc for the same composition

Row | Molecule | % Inhibition [1, 8] [%] | Total conc (minimum inhibitory concentration chosen for SI) ([1]; total actives in paint) [pppm] | % Inhibition [2, 8] [%] | Total conc (minimum inhibitory concentration chosen for SI) ([2]; total actives in paint) [pppm] | % Inhibition [3, 8] [%] | Total conc (minimum inhibitory concentration chosen for SI) ([3]; total actives in paint) [pppm] | % Inhibition [4, 8] [%] | Total conc (minimum inhibitory concentration chosen for SI) ([4]; total actives in paint) [pppm] | % Inhibition [5, 8] [%] | Total conc (minimum inhibitory concentration chosen for SI) ([5]; total actives in paint) [pppm] | % Inhibition [6] [%] | Total conc (minimum inhibitory concentration chosen for SI) ([6]; total actives in paint) [pppm] | solubility in water [7]
1 | c1ccc2[nH]c(-c3cscn3)nc2c1 [TBZ, thiabendazole] | 0 | 3300 | 100 | 1650 | 80 | 3300 | 80 | 2475 | 80 | 1650 | 70 | 2475 | –
2 | O=C(O)CNCP(=O)(O)O [glyphosate, N-(phosphonomethyl)glycine] | – | – | – | – | – | – | – | – | – | – | – | – | relatively high solubility in water
3 | zinc glyphosate | – | – | – | – | – | – | – | – | – | – | 70 | – | –
